Results from patent US20020009491A1, “Compositions and methods for enhancing drug delivery across biological membranes and tissues” (priority 2000, published 2002).

Assays:
[1] = fluorescein alone; cited from earlier work
[2] = Water solubility of taxol phosphate analog / arginine heptamer salt versus taxol
Procedure: This water soluble analog of taxol was assayed for biological activity using a standard cytotoxicity assay.

[3] = cited from earlier work

| SMILES | solubility in water (general statement) [1] | solubility in water [2] | water solubility [3] |
| --- | --- | --- | --- |
| O=C1OC2(c3ccc(O)cc3Oc3cc(O)ccc32)c2ccccc21 [fluorescein] | poorly soluble | – | – |
| CC(=O)O[C@H]1C(=O)[C@@]2(C)[C@H]([C@H](OC(=O)c3ccccc3)[C@]3(O)C[C@H](OC(=O)[C@H](O)[C@@H](NC(=O)c4ccccc4)c4ccccc4)C(C)=C1C3(C)C)[C@]1(OC(C)=O)CO[C@@H]1C[C@@H]2O [taxol, paclitaxel] | – | very limited solubility | ≈ 0.25 μg/mL |
| CC(=O)O[C@@]12CO[C@@H]1C[C@H](O)[C@@]1(C)C(=O)[C@H](O)C3=C(C)[C@@H](OC(=O)[C@H](O)[C@@H](NC(=O)OC(C)(C)C)c4ccccc4)C[C@@](O)([C@@H](OC(=O)c4ccccc4)[C@H]21)C3(C)C [taxotere] | – | – | 6 to 7 µg/mL |
